Values of other authors in patent publication US4340609A, “Amidinourea derivative veterinary compositions for suppression of parasitemia” (William H. Rorer, Inc., priority 1980, dated 1982).

Test system: P. berghei
Details: cited from earlier work

| SMILES | excretion from the host body (P. berghei infected mice, single muscular injection) | effect in P. berghei infected mice (single muscular injection) | resistance of P. berghei (P. berghei) |
| --- | --- | --- | --- |
| CC1(C)N=C(N)N=C(N)N1c1ccc(Cl)cc1 [chloroguanide triazine pamoate] | not excreted rapidly from the host body | good and lasting effects | – |
| CCc1nc(N)nc(N)c1-c1ccc(Cl)cc1 [pyrimethamine] | – | – | resistant |
